Tests used:
Assay type in all cases: binding, E. coli
SLT-1 (Verotoxin I) = SLT-1 (Verotoxin I) (Bacteriophage H30, UniProt P69178); experiment: biochemical; conditions: for IC50: read-out: IC50
SLT-1 (VT-1) = SLT-1 (VT-1) (Bacteriophage H30, UniProt P69178)
SLT-2 (VT-2) = SLT-2 (VT-2) (Escherichia phage 933W, UniProt P09386)
[1] = solid phase assays, protocol A or B

Chain of SLT-1 (Verotoxin I) (P69178 whole entry, looked up): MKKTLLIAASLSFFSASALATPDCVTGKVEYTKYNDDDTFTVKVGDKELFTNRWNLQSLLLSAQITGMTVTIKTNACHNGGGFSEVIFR
Chain of SLT-1 (VT-1) (P69178 whole entry, looked up): as above
Chain of SLT-2 (VT-2) (P09386 whole entry, looked up): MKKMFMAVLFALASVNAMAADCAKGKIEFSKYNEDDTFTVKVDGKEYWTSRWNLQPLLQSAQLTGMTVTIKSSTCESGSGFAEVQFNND

Structure (SMILES)	activity relative to the Pk trisaccharide alone (SLT-1 (Verotoxin I); ELISA, VT-I)	IC50 (SLT-1 (Verotoxin I)) [nM]	activity relative to the bridged trisaccharide dimer (SLT-1 (Verotoxin I); similar ELISA, FIG. 5)	relative inhibition of SLT-1 binding to P^k ligand (in words) (SLT-1 (Verotoxin I); [1])	IC50 (SLT-1 (VT-1)) [nM]	IC50 (SLT-2 (VT-2)) [nM]	fold less active when compared to 22 (SLT-1 (Verotoxin I); solid phase assays, protocol A or B, SLT-1)
CO[C@@H]1O[C@H](CO)[C@@H](O[C@@H]2O[C@H](CO)[C@H](O[C@H]3O[C@H](CO)[C@H](O)[C@H](O)[C@H]3O)[C@H](O)[C@H]2OCCOC(=O)NCC(CNC(=O)OCCO[C@H]2[C@H](O[C@H]3[C@H](O)[C@@H](O)[C@H](OC)O[C@@H]3CO)O[C@H](CO)[C@H](O[C@H]3O[C@H](CO)[C@H](O)[C@H](O)[C@H]3O)[C@@H]2O)OC(=O)NCCCCCCCCNc2c(NCCNC(=O)CSCCCOC[C@H]3O[C@@H](OCCCSCC(=O)NCCNc4c(NCCCCCCCCNC(=O)OC(CNC(=O)OCCO[C@H]5[C@H](O[C@H]6[C@H](O)[C@@H](O)[C@H](OC)O[C@@H]6CO)O[C@H](CO)[C@H](O[C@H]6O[C@H](CO)[C@H](O)[C@H](O)[C@H]6O)[C@@H]5O)CNC(=O)OCCO[C@H]5[C@H](O[C@H]6[C@H](O)[C@@H](O)[C@H](OC)O[C@@H]6CO)O[C@H](CO)[C@H](O[C@H]6O[C@H](CO)[C@H](O)[C@H](O)[C@H]6O)[C@@H]5O)c(=O)c4=O)[C@H](OCCCSCC(=O)NCCNc4c(NCCCCCCCCNC(=O)OC(CNC(=O)OCCO[C@H]5[C@H](O[C@H]6[C@H](O)[C@@H](O)[C@H](OC)O[C@@H]6CO)O[C@H](CO)[C@H](O[C@H]6O[C@H](CO)[C@H](O)[C@H](O)[C@H]6O)[C@@H]5O)CNC(=O)OCCO[C@H]5[C@H](O[C@H]6[C@H](O)[C@@H](O)[C@H](OC)O[C@@H]6CO)O[C@H](CO)[C@H](O[C@H]6O[C@H](CO)[C@H](O)[C@H](O)[C@H]6O)[C@@H]5O)c(=O)c4=O)[C@@H](OCCCSCC(=O)NCCNc4c(NCCCCCCCCNC(=O)OC(CNC(=O)OCCO[C@H]5[C@H](O[C@H]6[C@H](O)[C@@H](O)[C@H](OC)O[C@@H]6CO)O[C@H](CO)[C@H](O[C@H]6O[C@H](CO)[C@H](O)[C@H](O)[C@H]6O)[C@@H]5O)CNC(=O)OCCO[C@H]5[C@H](O[C@H]6[C@H](O)[C@@H](O)[C@H](OC)O[C@@H]6CO)O[C@H](CO)[C@H](O[C@H]6O[C@H](CO)[C@H](O)[C@H](O)[C@H]6O)[C@@H]5O)c(=O)c4=O)[C@@H]3OCCCSCC(=O)NCCNc3c(NCCCCCCCCNC(=O)OC(CNC(=O)OCCO[C@H]4[C@H](O[C@H]5[C@H](O)[C@@H](O)[C@H](OC)O[C@@H]5CO)O[C@H](CO)[C@H](O[C@H]5O[C@H](CO)[C@H](O)[C@H](O)[C@H]5O)[C@@H]4O)CNC(=O)OCCO[C@H]4[C@H](O[C@H]5[C@H](O)[C@@H](O)[C@H](OC)O[C@@H]5CO)O[C@H](CO)[C@H](O[C@H]5O[C@H](CO)[C@H](O)[C@H](O)[C@H]5O)[C@@H]4O)c(=O)c3=O)c(=O)c2=O)[C@H](O)[C@H]1O [Compound 22]	about a million times more active than the trisaccharide alone	0.23	about 10,000 times	by far the most active inhibitor of SLT-1 binding to P^k ligand	0.4	6	–
CO[C@@H]1O[C@H](CO)[C@@H](O[C@@H]2O[C@H](CO)[C@H](O[C@H]3O[C@H](CO)[C@H](O)[C@H](O)[C@H]3O)[C@H](O)[C@H]2OCCOC(=O)NCC(CNC(=O)OCCO[C@H]2[C@H](O[C@H]3[C@H](O)[C@@H](O)[C@H](OC)O[C@@H]3CO)O[C@H](CO)[C@H](O[C@H]3O[C@H](CO)[C@H](O)[C@H](O)[C@H]3O)[C@@H]2O)OC(=O)NCCCCCCCCNc2c(NCCNC(=O)CSCCCOC[C@H]3O[C@@H](OC)[C@H](OCCCSCC(=O)NCCNc4c(NCCCCCCCCNC(=O)OC(CNC(=O)OCCO[C@H]5[C@H](O[C@H]6[C@H](O)[C@@H](O)[C@H](OC)O[C@@H]6CO)O[C@H](CO)[C@H](O[C@H]6O[C@H](CO)[C@H](O)[C@H](O)[C@H]6O)[C@@H]5O)CNC(=O)OCCO[C@H]5[C@H](O[C@H]6[C@H](O)[C@@H](O)[C@H](OC)O[C@@H]6CO)O[C@H](CO)[C@H](O[C@H]6O[C@H](CO)[C@H](O)[C@H](O)[C@H]6O)[C@@H]5O)c(=O)c4=O)[C@@H](OCCCSCC(=O)NCCNc4c(NCCCCCCCCNC(=O)OC(CNC(=O)OCCO[C@H]5[C@H](O[C@H]6[C@H](O)[C@@H](O)[C@H](OC)O[C@@H]6CO)O[C@H](CO)[C@H](O[C@H]6O[C@H](CO)[C@H](O)[C@H](O)[C@H]6O)[C@@H]5O)CNC(=O)OCCO[C@H]5[C@H](O[C@H]6[C@H](O)[C@@H](O)[C@H](OC)O[C@@H]6CO)O[C@H](CO)[C@H](O[C@H]6O[C@H](CO)[C@H](O)[C@H](O)[C@H]6O)[C@@H]5O)c(=O)c4=O)[C@@H]3OCCCSCC(=O)NCCNc3c(NCCCCCCCCNC(=O)OC(CNC(=O)OCCO[C@H]4[C@H](O[C@H]5[C@H](O)[C@@H](O)[C@H](OC)O[C@@H]5CO)O[C@H](CO)[C@H](O[C@H]5O[C@H](CO)[C@H](O)[C@H](O)[C@H]5O)[C@@H]4O)CNC(=O)OCCO[C@H]4[C@H](O[C@H]5[C@H](O)[C@@H](O)[C@H](OC)O[C@@H]5CO)O[C@H](CO)[C@H](O[C@H]5O[C@H](CO)[C@H](O)[C@H](O)[C@H]5O)[C@@H]4O)c(=O)c3=O)c(=O)c2=O)[C@H](O)[C@H]1O [Compound 23]	–	1.6	–	–	3.3	9	–
CO[C@@H]1O[C@H](CO)[C@@H](O[C@@H]2O[C@H](CO)[C@H](O[C@H]3O[C@H](CO)[C@H](O)[C@H](O)[C@H]3O)[C@H](O)[C@H]2OCCOC(=O)NCCCCCCCCNc2c(NCCNC(=O)CSCCCOC[C@H]3O[C@@H](OCCCSCC(=O)NCCNc4c(NCCCCCCCCNC(=O)OCCO[C@H]5[C@H](O[C@H]6[C@H](O)[C@@H](O)[C@H](OC)O[C@@H]6CO)O[C@H](CO)[C@H](O[C@H]6O[C@H](CO)[C@H](O)[C@H](O)[C@H]6O)[C@@H]5O)c(=O)c4=O)[C@H](OCCCSCC(=O)NCCNc4c(NCCCCCCCCNC(=O)OCCO[C@H]5[C@H](O[C@H]6[C@H](O)[C@@H](O)[C@H](OC)O[C@@H]6CO)O[C@H](CO)[C@H](O[C@H]6O[C@H](CO)[C@H](O)[C@H](O)[C@H]6O)[C@@H]5O)c(=O)c4=O)[C@@H](OCCCSCC(=O)NCCNc4c(NCCCCCCCCNC(=O)OCCO[C@H]5[C@H](O[C@H]6[C@H](O)[C@@H](O)[C@H](OC)O[C@@H]6CO)O[C@H](CO)[C@H](O[C@H]6O[C@H](CO)[C@H](O)[C@H](O)[C@H]6O)[C@@H]5O)c(=O)c4=O)[C@@H]3OCCCSCC(=O)NCCNc3c(NCCCCCCCCNC(=O)OCCO[C@H]4[C@H](O[C@H]5[C@H](O)[C@@H](O)[C@H](OC)O[C@@H]5CO)O[C@H](CO)[C@H](O[C@H]5O[C@H](CO)[C@H](O)[C@H](O)[C@H]5O)[C@@H]4O)c(=O)c3=O)c(=O)c2=O)[C@H](O)[C@H]1O [Compound 25]	–	24	–	–	1230	–	500-1000 fold
CO[C@@H]1O[C@H](CO)[C@@H](O[C@@H]2O[C@H](CO)[C@H](O[C@H]3O[C@H](CO)[C@H](O)[C@H](O)[C@H]3O)[C@H](O)[C@H]2OCCOC(=O)NCCCCCCCCNc2c(NCCNC(=O)CSCCCOC[C@H]3O[C@@H](OC)[C@H](OCCCSCC(=O)NCCNc4c(NCCCCCCCCNC(=O)OCCO[C@H]5[C@H](O[C@H]6[C@H](O)[C@@H](O)[C@H](OC)O[C@@H]6CO)O[C@H](CO)[C@H](O[C@H]6O[C@H](CO)[C@H](O)[C@H](O)[C@H]6O)[C@@H]5O)c(=O)c4=O)[C@@H](OCCCSCC(=O)NCCNc4c(NCCCCCCCCNC(=O)OCCO[C@H]5[C@H](O[C@H]6[C@H](O)[C@@H](O)[C@H](OC)O[C@@H]6CO)O[C@H](CO)[C@H](O[C@H]6O[C@H](CO)[C@H](O)[C@H](O)[C@H]6O)[C@@H]5O)c(=O)c4=O)[C@@H]3OCCCSCC(=O)NCCNc3c(NCCCCCCCCNC(=O)OCCO[C@H]4[C@H](O[C@H]5[C@H](O)[C@@H](O)[C@H](OC)O[C@@H]5CO)O[C@H](CO)[C@H](O[C@H]5O[C@H](CO)[C@H](O)[C@H](O)[C@H]5O)[C@@H]4O)c(=O)c3=O)c(=O)c2=O)[C@H](O)[C@H]1O [Compound 26]	–	350	–	the activity drops by several orders of magnitude	3400	–	–
CO[C@@H]1O[C@H](CO)[C@@H](O[C@@H]2O[C@H](CO)[C@H](O[C@H]3O[C@H](CO)[C@H](O)[C@H](O)[C@H]3O)[C@H](O)[C@H]2OCCOC(=O)NCCCCCCCCNc2c(NCCNC(=O)CSCCCO[C@@H]3[C@@H](OCCCSCC(=O)NCCNc4c(NCCCCCCCCNC(=O)OCCO[C@H]5[C@H](O[C@H]6[C@H](O)[C@@H](O)[C@H](OC)O[C@@H]6CO)O[C@H](CO)[C@H](O[C@H]6O[C@H](CO)[C@H](O)[C@H](O)[C@H]6O)[C@@H]5O)c(=O)c4=O)[C@H](OC)O[C@H](CO)[C@H]3OCCCSCC(=O)NCCNc3c(NCCCCCCCCNC(=O)OCCO[C@H]4[C@H](O[C@H]5[C@H](O)[C@@H](O)[C@H](OC)O[C@@H]5CO)O[C@H](CO)[C@H](O[C@H]5O[C@H](CO)[C@H](O)[C@H](O)[C@H]5O)[C@@H]4O)c(=O)c3=O)c(=O)c2=O)[C@H](O)[C@H]1O [Compound 27]	–	3500	–	the activity drops by several orders of magnitude	13600	–	–

From patent US6310043A (priority 1999, dated 2001)
